Literature values in patent US20240408079A1, “COMPOSITIONS AND METHODS FOR THE TREATMENT OF CANCER” (THE TRANSLATIONAL GENOMICS RESEARCH INSTITUTE, priority 2021, published 2024).

Columns and labels:
[1] = system: EWS-FLI; details: preclinical studies
[2] = preclinical studies, in vivo
[3] = system: ES cell lines; details: multiple ES cell lines

Compound	transcriptional profiles driven by EWS-FLI [1]	tumorigenesis in vitro [1]	antitumoral activity [2]	tissue culture cell viability [3]
C/C(=N\NC(=O)c1cccc(S(=O)(=O)N2CCOCC2)c1)c1cc(Cl)ccc1O [SP-2509]	reverse the transcriptional profiles	significantly delay tumorigenesis	–	–
Seclidemstat [SP-2577]	reverse the transcriptional profiles	significantly delay tumorigenesis	little antitumoral activity in vivo	ability to impair tissue culture cell viability
